For one experiment, the system named is SH-SY5Y. The experiment can be described thus: Induction of neuronal differentiation in human SH-SY5Y cells assessed as increase in RARbeta mRNA expression at 0.001 to 1 uM measured after 8 hrs by RT-PCR analysis. The experiment is classed as functional, cell-based.
The next experiment is filed under the species Homo sapiens. Briefly: Induction of neuronal differentiation in human TERA2.cl.SP12 cells assessed as small and scattered colonies of TUJ-1 positive cells at 10 uM measured measured after 2 weeks by immunofluorescence method. The experiment is classed as functional, cell-based.

Calls of active or inactive are those of the source. No cut-off for these calls is given here.

For the compound `CC1=C(/C=C/C(C)=C/C=C/C(C)=C/C(=O)O)C(C)(C)CCC1`, in the experiment on SH-SY5Y, the outcome was Active.

Turning to `CCOCCOc1nc(-c2ccc(C(=O)O)cc2)sc1C`, the outcome in the experiment on SH-SY5Y and in the experiment listed under Homo sapiens was Active.

Regarding `CCOC(=O)c1ccc(-c2nc(-c3ccccc3)c(C)s2)cc1`, in the experiment listed under Homo sapiens, the result was Active.

The record behind these values is ChEMBL document CHEMBL4219070, “Probing biological activity through structural modelling of ligand-receptor interactions of 2,4-disubstituted thiazole retinoids” (Bioorg Med Chem, 2018).
